The record followed here is PubChem BioAssay AID288 (DTP/NCI, 2004).

This assay has as its system BDF1 mice, M5076 sarcoma s.c., survival/tumor T/C. The experiment in a line: NCI In Vivo Anticancer Drug Screen. Data for tumor model Sarcoma M5076 (subcutaneous) in B6D2F1 (BDF1) mice. On the procedure:
The antitumor activity of compounds was measured in mice bearing transplantable tumors. Survival or tumor size were measured and the results are expressed as the measurement made in the treated group (T) divided by the measurement made in the vehicle treated control group (C). The tumor model used in this assay is Sarcoma M5076 (subcutaneous) in B6D2F1 (BDF1) mice

The mark [1] stands for this setting: endpoint: median survival time, dose: 50.0 mg/kg/injection, schedule: Q01DX009 (ip), vehicle: saline with Tween-80, higher = longer survival.
Where [2] appears, read: endpoint: median survival time, dose: 100.0 mg/kg/injection, schedule: Q01DX009 (ip), vehicle: saline with Tween-80, higher = longer survival.
[3] abbreviates: endpoint: median survival time, dose: 200.0 mg/kg/injection, schedule: Q01DX009 (ip), vehicle: saline with Tween-80, higher = longer survival.
The mark [4] stands for this setting: endpoint: median tumor weight (est.), dose: 50.0 mg/kg/injection, schedule: Q01DX009 (ip), vehicle: saline with Tween-80, higher = larger tumour.
Where [5] appears, read: endpoint: median tumor weight (est.), dose: 100.0 mg/kg/injection, schedule: Q01DX009 (ip), vehicle: saline with Tween-80, higher = larger tumour.
The mark [6] stands for this setting: endpoint: median tumor weight (est.), dose: 200.0 mg/kg/injection, schedule: Q01DX009 (ip), vehicle: saline with Tween-80, higher = larger tumour.

Each structure is given as a SMILES string. Values joined by “and” are separate entries in the source; they are usually repeats but may differ in a detail not shown here. Equal entries are not always repeated. Inconclusive results are not listed.

In the case of `COC1CC2C=C(C)/C=C/C=C/C(=O)NC(c3ccccc3)C/C=C/CCC(O)CC(=O)C2=C1O` (stereo not given), the T/C is 100 % of control (endpoint: median survival time, dose: 1.0 mg/kg/injection, schedule: Q01DX009 (ip), vehicle: Klucel (hydroxypropylcellulose) (HPC), higher = longer survival); 100 % of control (endpoint: median survival time, dose: 2.0 mg/kg/injection, schedule: Q01DX009 (ip), vehicle: Klucel (hydroxypropylcellulose) (HPC), higher = longer survival); 100 % of control (endpoint: median survival time, dose: 4.0 mg/kg/injection, schedule: Q01DX009 (ip), vehicle: Klucel (hydroxypropylcellulose) (HPC), higher = longer survival); 77 % of control (endpoint: median tumor weight (est.), dose: 1.0 mg/kg/injection, schedule: Q01DX009 (ip), vehicle: Klucel (hydroxypropylcellulose) (HPC), higher = larger tumour); 109 % of control (endpoint: median tumor weight (est.), dose: 2.0 mg/kg/injection, schedule: Q01DX009 (ip), vehicle: Klucel (hydroxypropylcellulose) (HPC), higher = larger tumour); 82 % of control (endpoint: median tumor weight (est.), dose: 4.0 mg/kg/injection, schedule: Q01DX009 (ip), vehicle: Klucel (hydroxypropylcellulose) (HPC), higher = larger tumour).

In the case of `S=c1nc[nH]c2nc[nH]c12`, the T/C is 99 % of control (endpoint: median survival time, dose: 12.5 mg/kg/injection, schedule: Q04DX006 (ip), vehicle: saline with Tween-80, higher = longer survival); 111 % of control (endpoint: median survival time, dose: 25.0 mg/kg/injection, schedule: Q04DX006 (ip), vehicle: saline with Tween-80, higher = longer survival); 107 % of control (endpoint: median survival time, dose: 50.0 mg/kg/injection, schedule: Q02DX033 (ip), vehicle: saline with Tween-80, higher = longer survival); 105 % of control (endpoint: median survival time, dose: 50.0 mg/kg/injection, schedule: Q04DX006 (ip), vehicle: saline with Tween-80, higher = longer survival); 111 % of control (endpoint: median survival time, dose: 100.0 mg/kg/injection, schedule: Q04DX006 (ip), vehicle: saline with Tween-80, higher = longer survival).

Consider `O=C1NC2(CCCCC2)C(=O)N1CCN(CCCl)CCCl`, for which, for the setting “endpoint: median tumor weight (est.), dose: 16.0 mg/kg/injection, schedule: Q01DX009 (ip), vehicle: saline with Tween-80, higher = larger tumour”, the T/C is 10 % of control.

Consider `O=P1(N(CCCl)CCCl)NCCCO1` (stereo not given), for which the T/C was 100 % of control (endpoint: median survival time, dose: 6.25 mg/kg/injection, schedule: Q04DX006 (ip), vehicle: saline, higher = longer survival); 121 % of control (endpoint: median survival time, dose: 12.5 mg/kg/injection, schedule: Q02DX033 (ip), vehicle: saline, higher = longer survival); 108 % of control (endpoint: median survival time, dose: 12.5 mg/kg/injection, schedule: Q04DX006 (ip), vehicle: saline, higher = longer survival); 214 % of control (endpoint: median survival time, dose: 25.0 mg/kg/injection, schedule: Q02DX033 (ip), vehicle: saline, higher = longer survival); 124 % of control (endpoint: median survival time, dose: 25.0 mg/kg/injection, schedule: Q04DX006 (ip), vehicle: saline, higher = longer survival); 121 % of control (endpoint: median survival time, dose: 50.0 mg/kg/injection, schedule: Q04DX006 (ip), vehicle: saline, higher = longer survival). In addition, the T/C (endpoint: median survival time, dose: 64.8 mg/kg/injection, schedule: Q01DX001 (ip), vehicle: saline, higher = longer survival) is 101 % of control; the T/C (endpoint: median survival time, dose: 210.0 mg/kg/injection, schedule: Q01DX001 (ip), vehicle: saline, higher = longer survival) is 155 % of control and 157 % of control.

For the molecule `O=NN(CCCl)C(=O)NC1CCC(=O)NC1=O` (stereo not given), the T/C is, setting by setting: (endpoint: median survival time, dose: 2.0 mg/kg/injection, schedule: Q01DX009 (ip), vehicle: saline + alcohol, higher = longer survival) 170 % of control; (endpoint: median survival time, dose: 4.0 mg/kg/injection, schedule: Q01DX009 (ip), vehicle: saline + alcohol, higher = longer survival) 208 % of control; (endpoint: median survival time, dose: 8.0 mg/kg/injection, schedule: Q01DX009 (ip), vehicle: saline + alcohol, higher = longer survival) 86 % of control.

In the case of `NCCCNCCSP(=O)(O)O`, the T/C is 116 % of control (endpoint: median survival time, dose: 25.0 mg/kg/injection, schedule: Q02DX011 (ip), vehicle: saline, higher = longer survival); 106 % of control (endpoint: median survival time, dose: 50.0 mg/kg/injection, schedule: Q02DX011 (ip), vehicle: saline, higher = longer survival); 96 % of control (endpoint: median survival time, dose: 100.0 mg/kg/injection, schedule: Q02DX011 (ip), vehicle: saline, higher = longer survival).

Turning to `COc1ccc(/C=N/OC(=S)NC2CCCCC2)cc1OC`, the T/C is, setting by setting: under setting [1], 102 % of control; under setting [2], 86 % of control; under setting [3], 92 % of control.

On to `Cc1ccc(C(=O)N=Nc2c(Cl)c(O)c3ccccc3c2O)cc1`, for which the T/C is 113 % of control (endpoint: median survival time, dose: 12.5 mg/kg/injection, schedule: Q01DX009 (ip), vehicle: saline with Tween-80, higher = longer survival); 110 % of control (endpoint: median survival time, dose: 25.0 mg/kg/injection, schedule: Q01DX009 (ip), vehicle: saline with Tween-80, higher = longer survival); 89 % of control under setting [1]; 62 % of control (endpoint: median tumor weight (est.), dose: 12.5 mg/kg/injection, schedule: Q01DX009 (ip), vehicle: saline with Tween-80, higher = larger tumour); 120 % of control (endpoint: median tumor weight (est.), dose: 25.0 mg/kg/injection, schedule: Q01DX009 (ip), vehicle: saline with Tween-80, higher = larger tumour); 80 % of control under setting [4]. Also, under setting [5], the T/C is 88 % of control.

Regarding `CCCCCCC(=O)O[C@H]1CC[C@H]2[C@@H]3CCC4=CC(=O)CC[C@]4(C)[C@H]3CC[C@]12C`, the T/C runs as follows: (endpoint: mean tumor weight, dose: 15.0 mg/kg/injection, schedule: Q02DX011 (ip), vehicle: Klucel (hydroxypropylcellulose) (HPC), higher = larger tumour) 43 % of control; (endpoint: mean tumor weight, dose: 30.0 mg/kg/injection, schedule: Q02DX011 (ip), vehicle: Klucel (hydroxypropylcellulose) (HPC), higher = larger tumour) 68 % of control; (endpoint: median tumor weight (est.), dose: 7.5 mg/kg/injection, schedule: Q02DX011 (ip), vehicle: Klucel (hydroxypropylcellulose) (HPC), higher = larger tumour) 124 % of control; (endpoint: median tumor weight (est.), dose: 15.0 mg/kg/injection, schedule: Q02DX011 (ip), vehicle: Klucel (hydroxypropylcellulose) (HPC), higher = larger tumour) 21 % of control; (endpoint: median tumor weight (est.), dose: 30.0 mg/kg/injection, schedule: Q02DX011 (ip), vehicle: Klucel (hydroxypropylcellulose) (HPC), higher = larger tumour) 52 % of control.

For `O=C(N/N=C\c1cc(Br)cc(Br)c1O)N/N=C/c1cc(Br)cc(Br)c1O`, the T/C is, setting by setting: (endpoint: median survival time, dose: 200.0 mg/kg/injection, schedule: Q04DX003 (ip), vehicle: saline with Tween-80, higher = longer survival) 111 % of control; (endpoint: median survival time, dose: 400.0 mg/kg/injection, schedule: Q04DX003 (ip), vehicle: saline with Tween-80, higher = longer survival) 112 % of control; (endpoint: median survival time, dose: 800.0 mg/kg/injection, schedule: Q04DX003 (ip), vehicle: saline with Tween-80, higher = longer survival) 97 % of control.

Consider `Cn1c2c(c(=O)n(C)c1=O)CS(=O)c1ccccc1N2` (stereo not given), for which the T/C runs as follows: under setting [1], 103 % of control; under setting [2], 106 % of control; under setting [3], 109 % of control; under setting [4], 65 % of control; under setting [5], 61 % of control; under setting [6], 83 % of control.

`O=C(O)CC(NC(=O)CP(=O)(O)O)C(=O)O` (stereo not given): the T/C (endpoint: median survival time, dose: 38.9 mg/kg/injection, schedule: Q01DX004 (ip), vehicle: saline, higher = longer survival) is 109 % of control; the T/C (endpoint: median survival time, dose: 64.8 mg/kg/injection, schedule: Q01DX004 (ip), vehicle: saline, higher = longer survival) is 114 % of control; the T/C (endpoint: median survival time, dose: 75.0 mg/kg/injection, schedule: Q02DX010 (ip), vehicle: saline, higher = longer survival) was 176 % of control; the T/C (endpoint: median survival time, dose: 150.0 mg/kg/injection, schedule: Q02DX010 (ip), vehicle: saline, higher = longer survival) was 169 % of control; the T/C (endpoint: median survival time, dose: 180.0 mg/kg/injection, schedule: Q01DX004 (ip), vehicle: saline, higher = longer survival) was 124 % of control; the T/C (endpoint: median survival time, dose: 300.0 mg/kg/injection, schedule: Q02DX010 (ip), vehicle: saline, higher = longer survival) is 181 % of control.

On to `CCOc1cc(/C=N/NC(=O)N(c2ccccc2)c2ccccc2)ccc1O`, for which the T/C reads like this: under setting [1], 98 % of control; under setting [2], 99 % of control; under setting [3], 92 % of control.

With `c1cnc2c(OCCOCCOCCOCCOc3cccc4cccnc34)cccc2c1`, the T/C under setting [1] was 98 % of control; the T/C under setting [2] is 122 % of control; the T/C under setting [3] was 121 % of control; the T/C under setting [4] is 73 % of control; the T/C under setting [5] is 58 % of control; the T/C under setting [6] is 49 % of control.

For the molecule `CO[C@@]12[C@H](COC(N)=O)C3=C(C(=O)C(C)=C(N)C3=O)N1C[C@@H]1N[C@@H]12`, the T/C is, setting by setting: (endpoint: median survival time, dose: 0.38 mg/kg/injection, schedule: Q04DX006 (ip), vehicle: saline, higher = longer survival) 105 % of control; (endpoint: median survival time, dose: 0.75 mg/kg/injection, schedule: Q02DX033 (ip), vehicle: saline, higher = longer survival) 154 % of control; (endpoint: median survival time, dose: 0.75 mg/kg/injection, schedule: Q04DX006 (ip), vehicle: saline, higher = longer survival) 103 % of control; (endpoint: median survival time, dose: 1.5 mg/kg/injection, schedule: Q02DX033 (ip), vehicle: saline, higher = longer survival) 92 % of control; (endpoint: median survival time, dose: 3.0 mg/kg/injection, schedule: Q04DX006 (ip), vehicle: saline, higher = longer survival) 101 % of control.

For the molecule `O=C1/C(=C/c2cccc([N+](=O)[O-])c2)SC(=S)N1C1CC1`, the T/C runs as follows: under setting [1], 94 % of control; under setting [2], 94 % of control; under setting [3], 89 % of control; under setting [4], 100 % of control; under setting [5], 97 % of control.

As for `Nc1ccn(C2OC3COC2C3O)c(=O)n1` (stereo not given), the T/C (endpoint: median survival time, dose: 50.0 mg/kg/injection, schedule: Q01DX009 (ip), vehicle: saline, higher = longer survival) is 89 % of control; the T/C (endpoint: median survival time, dose: 100.0 mg/kg/injection, schedule: Q01DX009 (ip), vehicle: saline, higher = longer survival) was 110 % of control; the T/C (endpoint: median survival time, dose: 200.0 mg/kg/injection, schedule: Q01DX009 (ip), vehicle: saline, higher = longer survival) was 102 % of control; the T/C (endpoint: median tumor weight (est.), dose: 100.0 mg/kg/injection, schedule: Q01DX009 (ip), vehicle: saline, higher = larger tumour) is 65 % of control; the T/C (endpoint: median tumor weight (est.), dose: 200.0 mg/kg/injection, schedule: Q01DX009 (ip), vehicle: saline, higher = larger tumour) was 92 % of control.
